Eleven compounds from ChEMBL document CHEMBL1201862, “PubChem BioAssay data set” (2004) can be followed below.

Test systems include A498; BT-549; DU-145; HL-60; HOP-92; M14; MDA-MB-435; OVCAR-4; OVCAR-5; PC-3; RXF 393; SF-295; T47D; UACC-257; DMS-273; LXFL 529; M19-MEL; SNB-78; MCF7.
Test in all cases: growth of human tumour cells (NCI), 48 h

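Where inhibition never reached the appropriate level, the endpoint shown equals the highest concentration tested. Otherwise, values were interpolated linearly from a five-concentration, 48-hour dose response in 96-well plates. The concentration for 50% growth inhibition is given as GI50.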 The source made the active and inactive calls. Cut-off read from the data, not from the text of the source: active = GI50 up to about 1.1 µM and inactive = higher. A value given as a limit tells only on which side of the number the result lay.

For `c1ccc2c(c1)c1ccccc1n2Cn1c2ccccc2c2ccccc21`, the GI50 in the experiment on A498, in the experiment on BT-549, with DU-145, with HL-60, in the experiment on HOP-92 and in the experiment with M14 was > 100 µM (inactive) in each case. Also, the GI50 with MDA-MB-435, in the experiment with OVCAR-4, in the experiment with OVCAR-5, in the experiment with PC-3, with RXF 393 and in the experiment on SF-295 was > 100 µM (inactive) in each case. Further, the GI50 in the experiment on T47D and with UACC-257 was > 100 µM (inactive) each time.

For the compound `C=CNC(=S)n1nc(-c2ccccc2NC(=O)C(F)(F)F)c(=O)n(C(=S)NC=C)c1=S`, the GI50 with DMS-273 is 26.8 µM (inactive); with HOP-92, 10.5 µM (inactive); in the experiment on LXFL 529 it was 19.5 µM (inactive); in the experiment with M14, 34.6 µM (inactive); in the experiment with M19-MEL it was 31.8 µM (inactive); with OVCAR-4 it was 3.58 µM (inactive). The GI50 was 26.7 µM (inactive) in the experiment with OVCAR-5, 73.6 µM (inactive) in the experiment with RXF 393, 19.2 µM (inactive) in the experiment on SF-295 and 51.1 µM (inactive) with SNB-78.

With `CCc1cc2c(oc3cc4ccccc4cc32)c(=O)[nH]1`, the GI50 with BT-549, in the experiment on DU-145, in the experiment with HL-60, in the experiment on HOP-92, in the experiment with M14 and with OVCAR-4 was > 10 µM (inactive) each time. The GI50 in the experiment with OVCAR-5, with PC-3, with RXF 393, in the experiment with SF-295 and in the experiment with UACC-257 was > 10 µM (inactive) in each case.

Turning to `O=C1CC2(CCC(O)(c3ccccc3)C(C(=O)c3ccccc3)C2)C(=O)c2ccccc2N1` (stereo not drawn), the GI50 in the experiment on A498 was > 100 µM (inactive); with BT-549, > 100 µM (inactive); with DU-145, > 100 µM (inactive); in the experiment with HL-60, > 100 µM (inactive); in the experiment on HOP-92, 93.5 µM (inactive); in the experiment with M14, > 100 µM (inactive). The GI50 is > 100 µM (inactive) in the experiment with MCF7; > 100 µM (inactive) with MDA-MB-435; 38.2 µM (inactive) with OVCAR-4; > 100 µM (inactive) in the experiment on OVCAR-5; > 100 µM (inactive) in the experiment with PC-3; > 100 µM (inactive) in the experiment on RXF 393. Besides, the GI50 with SF-295, with T47D and in the experiment on UACC-257 was > 100 µM (inactive) throughout.

With `CCN(CC)CCSc1nc(-c2c[nH]c3nc(C)ccc3c2=O)n[nH]1`, the GI50 with A498, in the experiment on BT-549, in the experiment on DU-145, in the experiment on HL-60, in the experiment on M14 and in the experiment with MCF7 was > 100 µM (inactive) each time. Also, the GI50 in the experiment on MDA-MB-435, in the experiment on OVCAR-4, with OVCAR-5, with PC-3, with RXF 393 and in the experiment on SF-295 was > 100 µM (inactive) throughout. For the same compound, the GI50 with T47D and in the experiment with UACC-257 was > 100 µM (inactive) throughout.

Take `COc1c(C(=O)/C(=N/Nc2ccccc2)C(C)=O)c(O)c(OC)c2occc12`: the GI50 is > 100 µM (inactive) with DU-145; 22.6 µM (inactive) with HL-60; 9.38 µM (inactive) in the experiment on HOP-92; > 100 µM (inactive) in the experiment on M14; 25.4 µM (inactive) in the experiment with MCF7; 34 µM (inactive) with MDA-MB-435. Besides, the GI50 with OVCAR-4 is > 100 µM (inactive); in the experiment with OVCAR-5 it was > 100 µM (inactive); in the experiment on PC-3, 27 µM (inactive); in the experiment on RXF 393, 13.7 µM (inactive); with SF-295, 48.9 µM (inactive); in the experiment with T47D, 19.3 µM (inactive). Besides, the GI50 with UACC-257 was 34.9 µM (inactive).

For the compound `CSC1=N/C(=C\c2ccccc2)C(=O)N1CN1CCCCC1`, the GI50 is 77.8 µM (inactive) in the experiment with A498; > 100 µM (inactive) in the experiment with DU-145; 11.7 µM (inactive) in the experiment on HOP-92; 61.7 µM (inactive) in the experiment with M14; 24.6 µM (inactive) in the experiment with MCF7; 49.7 µM (inactive) in the experiment on MDA-MB-435. Further, the GI50 in the experiment on OVCAR-4 is 16.4 µM (inactive); with OVCAR-5, > 100 µM (inactive); with PC-3, 55.5 µM (inactive); with SF-295 it was > 100 µM (inactive).

`COc1ccc(C2c3cc4c(cc3OC(Nc3ccccc3)C2C)OCO4)cc1` (stereo not drawn): the GI50 in the experiment with A498 was 58.6 µM (inactive); in the experiment on BT-549, 68.1 µM (inactive); in the experiment with DU-145, 57.9 µM (inactive); in the experiment on HL-60, 22.2 µM (inactive); in the experiment on HOP-92 it was 23.8 µM (inactive); in the experiment on M14, 85.9 µM (inactive). In addition, the GI50 in the experiment with MCF7 is 23.6 µM (inactive); with MDA-MB-435, 67.8 µM (inactive); with OVCAR-5, > 100 µM (inactive); in the experiment with PC-3 it was 28.3 µM (inactive); with RXF 393, 33.5 µM (inactive); with SF-295 it was 25.5 µM (inactive). For the same compound, the GI50 with T47D is 36.1 µM (inactive); with UACC-257 it was 75.2 µM (inactive).

In the case of `CCC1(C)NN=c2s/c(=C/c3ccc(OC)cc3)c(=O)n2N1` (stereo not drawn), the GI50 in the experiment with DMS-273 is > 100 µM (inactive); in the experiment on HOP-92 it was 17.6 µM (inactive); in the experiment on LXFL 529, > 100 µM (inactive); in the experiment with M14 it was > 100 µM (inactive); in the experiment on OVCAR-4 it was 35.7 µM (inactive); with OVCAR-5, > 100 µM (inactive). The GI50 in the experiment with RXF 393 is 49.4 µM (inactive); with SF-295 it was > 100 µM (inactive); with SNB-78, > 100 µM (inactive).

Regarding `O=S(=O)(/N=C(\NO)Nc1ccc(Cl)cc1)c1ccc(-c2ccccn2)s1`, the GI50 in the experiment with BT-549 was 19.6 µM (inactive); in the experiment with DU-145, > 100 µM (inactive); in the experiment on HL-60 it was 24 µM (inactive); in the experiment with HOP-92, 27.4 µM (inactive); in the experiment on M14, 56.1 µM (inactive); in the experiment on MDA-MB-435 it was 27.5 µM (inactive). In addition, the GI50 with OVCAR-4 was 16.4 µM (inactive); in the experiment with OVCAR-5 it was 74.1 µM (inactive); in the experiment with PC-3, 38.8 µM (inactive); in the experiment on RXF 393, 19 µM (inactive); with SF-295, 52.1 µM (inactive); in the experiment on T47D it was 62.4 µM (inactive). The GI50 in the experiment with UACC-257 was 34 µM (inactive).

As to `CNc1cc2c(c3ccccc13)C(CCl)CN2C(=O)c1cc2cc(OC)c(OC)c(OC)c2[nH]1` (stereo not drawn), the GI50 is 0.00261 µM (active) in the experiment on A498; 0.00881 µM (active) with BT-549; 0.000442 µM (active) in the experiment on DU-145; 0.000123 µM (active) with HL-60; 0.00484 µM (active) with HOP-92; 0.00235 µM (active) in the experiment on M14. Also, the GI50 in the experiment with MCF7 was 0.000822 µM (active); with MDA-MB-435, 0.00309 µM (active); with OVCAR-4 it was < 0.01 µM (active); in the experiment with OVCAR-5 it was 0.0052 µM (active); with PC-3, 0.00214 µM (active); in the experiment with RXF 393 it was < 0.01 µM (active). Further, the GI50 in the experiment on SF-295 is 0.00155 µM (active); in the experiment on T47D it was 0.00322 µM (active); with UACC-257 it was 0.00541 µM (active).
